From US20240168041A1, “SYSTEMS AND METHODS ENABLING PH[…] TESTING OF PATCH-CLAMP SAMPLES” (priority 2021, published 2024) come the findings set out here.

The target of assay [1] is T1, GABAAR (α1β2γ2 L) in stably transfected HEK cells (Mus musculus, UniProt P22723+P62812+P63137).
T1 construct: expressed in transfected cells; host or cells: HEK 293 cells
Kind of assay: Rapid agonist application patch-clamp recording of GABAAR responses (patcherBotPharma). It is filed as cell-based. As to conditions: rapid application of 1 mM GABA for 1 sec. How it is done:
(§1) Recordings are from a lifted whole cell (left) and an outside-out patch using a 4 MΩ electrode (right), at −60 mV in 0 mM Mg^2+. […] Recordings are from a lifted whole cell (left, 1 s application) and an outside-out patch (right, 5 ms application).
(§2) cDNAs for mouse Gabra1, Gabrb2, and the long form of Gabrg2 were subcloned into the pAC156 plasmid, a generous gift from Albert Cheng. The cDNAs were driven by an EF1alpha promoter. A PGK promoter-driven puromycin resistance cassette was also present in pAC156; both cassettes were flanked by piggybac transposon arms. All three plasmids were co-transfected with the mPB piggybac transposase into HEK 293 cells, selected by puromycin, and sorted into single cells. Clones were assayed for Gabra1, Gabrb2, and Gabrg2 expression by immunofluorescence, and one clone was expanded for further study and use in this description herein. Trypsin was used to dissociate the cells and plated on the same coverslips, as mentioned above, 24-72 hours before experimentation (shorter time and less PDL for lifted cell, and the inverse for excised patches).
(§3) Whole-cell voltage-clamp recordings were performed with thin-walled borosilicate glass electrodes (3-6 MΩ, TW150E-4, World Precision Instruments) filled with solution containing (in mM) 110 Cs-gluconate, 30 CsCl, 5 HEPES, 4 NaCl, 0.5 CaCl2, 2 MgCl2, 5 BAPTA, 2 NaATP, 0.3 NaGTP (pH 7.35). The extracellular recording solution contained (in mM) 150 NaCl, 10 HEPES, 3 KCl, 0.5 CaCl2, 1 MgCl2, and 0.01 EDTA (pH 7.4). Whole cell recording from primary cortical neurons (examples showing alternative experiment paradigm in the supplemental) were obtained utilizing an internal solution, containing (in mM) 115 K-gluconate, 20 KCl, 10 HEPES, 2 Mg2ATP, 0.3 NaGTP, and 10 Na2Phosphocreatine (pH 7.35), and external solution stated above but with 1 mM CaCl2. The electrode cleaning solution (2% Tergazyme in water) was made fresh daily. Cleaned electrodes were washed in appropriate internal solution. All solutions were filtered (0.45 μm or 0.22 μm). Responses were recorded using a Multiclamp 700B (Molecular Devices), filtered at 10 kHz (−3 dB), and digitized at 20 kHz.
(§4) Whole-cell rapid solution exchange experiments were analyzed using custom algorithms (Matlab, Mathworks). The desensitization and deactivation time courses were fitted by exponential functions based on receptor type. For NMDAR desensitization and GABAAR deactivation, they were fit by one exponential function,
In this experimental run, the patcherBotPharma was programmed to collect four-phase recordings. During each phase, five technical replicate sweeps were collected, a 10 sec sweep with agonist applied for 0.5 sec. Following each set of recordings, the patch was blown off with high pressure and the open-tip exchange time was determined to validate the electrode positioning.
(The patch-clamp technique gives a direct electrical read-out from membranes.)

Assay [2] has as its target T2, GABAAR in stably expressing HEK cells (Mus musculus, UniProt P22723+P62812+P63137).
T2 construct: expressed in transfected cells; host or cells: HEK 293 cells
The assay can be described thus: cell-based.
Description: FIGS. 5A through 5D provides various steps system 500 can perform to achieve a time-constant concentration response of deactivation of a cell receptor exposed to a drug. […] FIGS. 5A through 5D the individual steps in a flowchart illustrating the patcherBotPharma operation, timing, and success rate. After the one-time calibration and cell selection step 502, system 500 loops through and serially records from the selected cells in steps 504 through 514. Quality control measures are in place at steps 506, 508a, 508b, and 510 to terminate the current experiment and continue to the next iteration, as shown in FIG. 5A. System 500 can perform calibration and cell selection 502 manually such that the user selects one or more cells within a biological sample. In some instances, calibration and cell selection 502 can be performed automatically. For instance, calibration can be pre-programed and stored in memory 66 of controller 200. Alternatively, or in addition thereto, calibration can be automatically sensed by a combination of the manipulator assembly 120 and automated control of a microscope.
After quality control measures verify an appropriate seal between the pipette tip 110 and the cell target, system 500 can initiate the experimental protocol at step 512. […] Each phase of each experiment would start with the valves changing to the next set to be tested, with a wait step to allow for the solutions to be primed, followed by the collection of 10 replicates of the intended jump protocol.
as §2, §3
Whole-cell rapid solution exchange experiments were analyzed using custom algorithms (Matlab, Mathworks). The desensitization and deactivation time courses were fitted by exponential functions based on receptor type.

The target of assay [3] is T3, NMDAR (GluN1/GluN2A) in transiently transfected HEK cells (Rattus norvegicus, UniProt P35439+Q00959).
T3 construct: expressed in transfected cells; host or cells: HEK-293 cells (CRL 1573, ATCC); calcium phosphate transient transfection with GFP co-transfected
T3 sequence (Q00959 23-1464, other chains not shown): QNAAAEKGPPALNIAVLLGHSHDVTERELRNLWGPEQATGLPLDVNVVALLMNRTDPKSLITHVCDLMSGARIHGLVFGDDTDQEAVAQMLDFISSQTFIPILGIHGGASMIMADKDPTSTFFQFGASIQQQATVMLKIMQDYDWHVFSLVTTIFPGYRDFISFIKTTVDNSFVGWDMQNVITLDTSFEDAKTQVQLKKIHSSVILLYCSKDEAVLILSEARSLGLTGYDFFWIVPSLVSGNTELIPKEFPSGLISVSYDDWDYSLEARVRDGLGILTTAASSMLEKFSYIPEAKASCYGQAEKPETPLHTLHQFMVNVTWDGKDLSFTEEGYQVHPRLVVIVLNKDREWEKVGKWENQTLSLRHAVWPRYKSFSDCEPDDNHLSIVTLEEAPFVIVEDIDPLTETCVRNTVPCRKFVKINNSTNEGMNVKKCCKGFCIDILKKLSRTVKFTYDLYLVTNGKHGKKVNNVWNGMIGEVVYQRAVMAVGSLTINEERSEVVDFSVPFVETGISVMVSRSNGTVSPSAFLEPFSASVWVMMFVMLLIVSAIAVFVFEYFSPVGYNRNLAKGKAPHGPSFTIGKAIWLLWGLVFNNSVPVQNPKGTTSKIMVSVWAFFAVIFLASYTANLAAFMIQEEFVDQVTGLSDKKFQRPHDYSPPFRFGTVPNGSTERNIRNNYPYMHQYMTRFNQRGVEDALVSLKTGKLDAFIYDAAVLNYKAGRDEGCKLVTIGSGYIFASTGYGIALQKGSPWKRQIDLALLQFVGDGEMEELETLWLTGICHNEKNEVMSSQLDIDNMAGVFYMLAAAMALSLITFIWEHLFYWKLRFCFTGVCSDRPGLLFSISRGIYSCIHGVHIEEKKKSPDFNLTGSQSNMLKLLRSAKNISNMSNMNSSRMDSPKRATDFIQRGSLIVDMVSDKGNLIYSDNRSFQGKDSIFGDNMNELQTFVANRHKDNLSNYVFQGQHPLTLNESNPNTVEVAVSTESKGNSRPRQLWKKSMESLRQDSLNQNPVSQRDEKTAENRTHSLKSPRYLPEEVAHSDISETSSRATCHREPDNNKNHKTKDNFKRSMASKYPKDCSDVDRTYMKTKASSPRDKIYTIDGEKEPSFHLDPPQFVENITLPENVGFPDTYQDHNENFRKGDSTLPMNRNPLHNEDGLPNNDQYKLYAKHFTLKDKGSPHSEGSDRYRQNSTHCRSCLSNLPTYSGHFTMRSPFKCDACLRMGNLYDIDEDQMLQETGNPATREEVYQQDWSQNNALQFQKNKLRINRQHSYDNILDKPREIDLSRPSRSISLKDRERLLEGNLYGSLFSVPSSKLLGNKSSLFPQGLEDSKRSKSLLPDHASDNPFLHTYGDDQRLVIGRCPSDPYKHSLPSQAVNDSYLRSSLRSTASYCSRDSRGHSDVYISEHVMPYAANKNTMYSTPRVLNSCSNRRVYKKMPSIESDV
The assay can be described thus: Rapid agonist application patch-clamp recording of NMDAR responses (patcherBotPharma). It counts as cell-based. As to conditions: rapid application of 1 mM Glutamate for 1 sec; −60 mV. The method, then: as §1
HEK-293 cells (CRL 1573, ATCC; hereafter HEK cells) and a stable GABAAR-expressing cell line were cultured in DMEM (Cat #10566016, ThermoFisher Scientific) supplemented with 10% fetal bovine serum (FBS), 10 U/ml penicillin, and 10 lag/ml streptomycin and maintained at 5% CO2 in a 37° C. incubator. For use on the electrophysiology rig, heterologous cells were plated on poly-D-Lysine (PDL) coated glass coverslips (0.1-0.5 mg/mL, Warner Instruments). Transiently transfected recombinant receptors were expressed from complementary DNA (cDNA) encoding rat GluN1-1a (hereafter GluN1, U08261) and GluN2A (D13211). Calcium phosphate was used to transiently transfect HEK cells in a 24-well plate with 500 ng of cDNA at a ratio of 1:1:5 (GluN1:GluN2A:GFP). Four hours after transfection, NMDAR antagonists D,L-2amino-5-phosphonovalerate (200 μM, DL-APV) and 7-chlorokynurenic acid (200 μM) were added to the culture medium to decrease the cytotoxic effect of NMDAR expression.
as §3, §4
A series of pharmacology experiments were performed on GABAAR and NMDARs where rapid agonist application was applied to excised outside-out patches to assess patcherBotPharma performance on the minimum processes required in an experiment, described in more detail in Table 1).

In assay [4] the target is T3, NMDAR (GluN1/GluN2A) in transiently transfected HEK cells. The assay is described as above. It is filed as cell-based. As to conditions: rapid application of 1 mM Glutamate for 1 sec; −40 mV.
The mark [5] stands for this setting: 1 mM GABA for 0.5 sec, propofol-free GABA Control, concentration set 1.
Setting [6] is: 1 mM GABA for 0.5 sec, propofol-free GABA Control, concentration set 2.
Setting [7] is: 0.5 μM PRO, 1 mM GABA for 0.5 sec, set 1.
Setting [8] is: 1 μM PRO, 1 mM GABA for 0.5 sec, set 2.
[9] abbreviates: 2 μM PRO, 1 mM GABA for 0.5 sec, set 1.
[10] abbreviates: 5 μM PRO, 1 mM GABA for 0.5 sec, set 2.
The mark [11] stands for this setting: 10 μM PRO, 1 mM GABA for 0.5 sec, set 1.
The mark [12] stands for this setting: 20 μM PRO, 1 mM GABA for 0.5 sec, set 2.
[13] abbreviates: 50 μM PRO, 1 mM GABA for 0.5 sec, set 1.
The mark [14] stands for this setting: 100 μM PRO, 1 mM GABA for 0.5 sec, set 2.

SMILES strings stand for the structures. Several values for one entry are separate records, joined by “and”; a condition that tells them apart may be missing. Identical values can stand only once. Like-named read-outs stand apart in the source and are kept apart here.

T1 sequence (P62812 28-455): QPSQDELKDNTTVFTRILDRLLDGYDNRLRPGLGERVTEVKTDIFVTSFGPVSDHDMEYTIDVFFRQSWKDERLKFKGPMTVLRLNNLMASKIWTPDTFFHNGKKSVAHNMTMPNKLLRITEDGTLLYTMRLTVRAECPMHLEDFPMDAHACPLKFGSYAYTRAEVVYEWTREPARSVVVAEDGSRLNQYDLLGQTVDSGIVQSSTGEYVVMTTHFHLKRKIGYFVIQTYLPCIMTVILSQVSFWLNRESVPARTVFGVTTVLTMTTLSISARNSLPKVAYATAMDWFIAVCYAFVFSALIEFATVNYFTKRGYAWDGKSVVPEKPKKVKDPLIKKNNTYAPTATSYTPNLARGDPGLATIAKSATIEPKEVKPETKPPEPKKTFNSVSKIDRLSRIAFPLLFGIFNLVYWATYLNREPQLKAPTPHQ
T1 sequence (P63137 25-512 limits assumed): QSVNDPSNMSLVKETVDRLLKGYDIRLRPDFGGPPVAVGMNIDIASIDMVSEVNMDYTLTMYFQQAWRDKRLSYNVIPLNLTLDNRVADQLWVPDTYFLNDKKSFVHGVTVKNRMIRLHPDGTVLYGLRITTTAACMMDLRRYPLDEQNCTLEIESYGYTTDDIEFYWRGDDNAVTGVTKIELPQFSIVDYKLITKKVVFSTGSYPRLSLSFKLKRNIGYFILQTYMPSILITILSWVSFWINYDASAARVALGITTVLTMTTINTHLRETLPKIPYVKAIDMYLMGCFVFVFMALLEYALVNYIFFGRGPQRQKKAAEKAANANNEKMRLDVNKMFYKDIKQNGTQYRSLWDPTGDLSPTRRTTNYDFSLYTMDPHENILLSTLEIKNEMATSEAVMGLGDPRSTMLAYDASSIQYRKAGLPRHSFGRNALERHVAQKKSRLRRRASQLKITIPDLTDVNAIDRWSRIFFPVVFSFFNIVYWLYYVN
T1 sequence (P22723 39-474): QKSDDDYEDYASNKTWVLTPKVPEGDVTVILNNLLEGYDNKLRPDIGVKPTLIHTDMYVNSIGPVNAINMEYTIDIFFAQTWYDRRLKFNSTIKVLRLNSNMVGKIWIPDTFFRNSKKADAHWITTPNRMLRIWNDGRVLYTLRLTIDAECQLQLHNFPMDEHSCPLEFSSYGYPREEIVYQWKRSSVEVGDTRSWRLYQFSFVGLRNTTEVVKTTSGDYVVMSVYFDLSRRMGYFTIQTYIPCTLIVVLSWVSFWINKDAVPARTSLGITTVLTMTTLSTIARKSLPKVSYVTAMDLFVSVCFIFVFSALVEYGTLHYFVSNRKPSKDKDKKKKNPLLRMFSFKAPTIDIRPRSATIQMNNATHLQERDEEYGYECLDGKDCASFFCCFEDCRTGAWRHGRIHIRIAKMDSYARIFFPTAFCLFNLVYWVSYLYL
T2 sequence (P62812 28-455): as the sequence (P62812 28-455) above
T2 sequence (P63137 25-512 limits assumed): as the sequence (P63137 25-512 limits assumed) above
T2 sequence (P22723 39-474): as the sequence (P22723 39-474) above

With `NCCCC(=O)O` [GABA], in assay [1] (−40 mV), the “Deactivation Tau” value was 216 ± 29 ms, the “Desensitization Extent (SS/Peak %)” value is on record as 26.4 ± 1.8%, the “Desensitization Tau” value stood at 681 ± 130 ms and the “Response Peak Amplitude” value turned out to be 586 ± 150 pA. Besides, the “Response Steady State Amplitude” value in assay [1] (−40 mV) was 170 ± 54 pA. Besides, in assay [1] (−60 mV), the “Deactivation Tau” value stood at 133 ± 6 ms, the “Desensitization Extent (SS/Peak %)” value was found to be 24.8 ± 1.1%, the “Desensitization Tau” value worked out at 965 ± 298 ms and the “Response Peak Amplitude” value is recorded as 173 ± 48 pA. Also, in assay [2] (setting [5]), the “Deactivation Tau” value amounted to 129 ± 11 ms, the “Desensitization Extent (SS/Peak %)” value is 39.3 ± 2.0%, the “Response Peak Amplitude” value was found to be 133 ± 36 pA and the “Response Steady State Amplitude” value came out at 51.1 ± 12.3 pA. For the same compound, in assay [2] (setting [6]), the “Deactivation Tau” value was 130 ± 27 ms, the “Desensitization Extent (SS/Peak %)” value was found to be 31.8 ± 7.7%, the “Response Peak Amplitude” value turned out to be 93.6 ± 6.8 pA and the “Response Steady State Amplitude” value is given as 30.5 ± 8.1 pA.
For the compound `N[C@@H](CCC(=O)O)C(=O)O` [Glutamate, glutamate], in assay [3], the “Deactivation Tau” value was 81.3 ± 18.4 ms, the “Desensitization Extent (SS/Peak %)” value was 54.8 ± 6.9%, the “Desensitization Tau” value came to 984 ± 192 ms and the “Response Peak Amplitude” value turned out to be 326 ± 180 pA. Also, the “Response Steady State Amplitude” value in assay [3] was found to be 215 ± 139 pA. In assay [4], the “Deactivation Tau” value amounted to 71.9 ± 11.0 ms, the “Desensitization Extent (SS/Peak %)” value is 34.2 ± 6.4%, the “Desensitization Tau” value was found to be 388 ± 75 ms and the “Response Peak Amplitude” value worked out at 271 ± 104 pA. Besides, in assay [4], the “Response Steady State Amplitude” value was 130 ± 68 pA.
By EC50 is commonly meant the concentration at which the effect is half-maximal. `CC(C)c1cccc(C(C)C)c1O` [propofol]: the “Deactivation Tau” value was 143 ± 25 ms and 129 ± 12 ms in assay [2]; 116 ± 13 ms in assay [2] (setting [7]); 110 ± 15 ms in assay [2] (setting [8]); 128 ± 13 ms in assay [2] (setting [9]); 198 ± 29 ms in assay [2] (setting [10]); 208 ± 20 ms in assay [2] (setting [11]). For the same compound, the figures for the “Deactivation Tau” value in assay [2] (setting [12]), in assay [2] (setting [13]) and in assay [2] (setting [14]) were 328 ± 53 ms, 331 ± 21 ms and 415 ± 226 ms, respectively. Besides, the “Desensitization Extent (SS/Peak %)” value in assay [2] is 41.8 ± 1.7% and 25.2 ± 13.5%; in assay [2] (setting [7]), 39.6 ± 1.3%; in assay [2] (setting [8]), 34.9 ± 6.7%; in assay [2] (setting [9]), 40.0 ± 1.7%; in assay [2] (setting [10]), 30.0 ± 5.1%; in assay [2] (setting [11]), 43.1 ± 2.2%. Besides, the “Desensitization Extent (SS/Peak %)” value was 25.2 ± 6.6% in assay [2] (setting [12]) and 33.8 ± 2.7% in assay [2] (setting [13]). The EC50 in assay [2] is 11.8 ± 4.6 µM. Besides, the “Response Peak Amplitude” value was 100 ± 20 pA in assay [2] (setting [7]); 72.2 ± 18.0 pA in assay [2] (setting [8]); 109 ± 32 pA in assay [2] (setting [9]); 37.8 ± 9.1 pA in assay [2] (setting [10]); 96.0 ± 25.2 pA in assay [2] (setting [11]); 21.5 ± 4.6 pA in assay [2] (setting [12]). Also, the “Response Peak Amplitude” value in assay [2] (setting [13]) was 63.9 ± 17.8 pA; in assay [2] (setting [14]), 8.9 ± 1.2 pA. For the same compound, the “Response Steady State Amplitude” value came to 40.4 ± 8.9 pA in assay [2] (setting [7]); 24.2 ± 6.6 pA in assay [2] (setting [8]); 45.6 ± 14.9 pA in assay [2] (setting [9]); 11.1 ± 2.4 pA in assay [2] (setting [10]); 42.1 ± 11.6 pA in assay [2] (setting [11]); 6.1 ± 2.2 pA in assay [2] (setting [12]). The “Response Steady State Amplitude” value in assay [2] (setting [13]) was 23.5 ± 7.4 pA; in assay [2] (setting [14]) it was 5.8 ± 7.5 pA.
